According to PMC11615292, “Fast-diffusing receptor collisions with slow-diffusing peptide ligand assemble the ternary parathyroid hormone–GPCR–arrestin complex” (Nature Communications, 2024):

Tests used:
βarr2L69C-BIM = target: T1, βarr2L69C-BIM (Homo sapiens, UniProt P32121, C126S/C141L/C151V/C17S/C243V/C252V/C270S/C409S/C60V/L69C); assay: bimane fluorescence titration, single-site fit; assay type: binding
T1 construct: gene ARRB2; Cys-less full-length βarr2 with L69C in finger loop, labelled with monobromobimane at C69; E. coli NiCo21(DE3), pET-15b; N-terminal 6xHis-3C removed by 3C protease, GG-AviTag-GGSGGS linker kept
Excerpt: bimane fluorescence titration, single-site fit on βarr2L69C-BIM | PIP3 binds βarr2 with higher affinity than PIP2 and induces a conformational change | Like PIP2 and V2Rpp, PIP3 induced a concentration-dependent increase in bimane fluorescence

[1] = target: PTH type 1 receptor C-terminally fused to monomeric NeonGreen (PTH1R^mNG) (human) (UniProt Q03431)
PTH type 1 receptor C-terminally fused to monomeric NeonGreen (PTH1R^mNG) (human), sequence (Q03431 27-593): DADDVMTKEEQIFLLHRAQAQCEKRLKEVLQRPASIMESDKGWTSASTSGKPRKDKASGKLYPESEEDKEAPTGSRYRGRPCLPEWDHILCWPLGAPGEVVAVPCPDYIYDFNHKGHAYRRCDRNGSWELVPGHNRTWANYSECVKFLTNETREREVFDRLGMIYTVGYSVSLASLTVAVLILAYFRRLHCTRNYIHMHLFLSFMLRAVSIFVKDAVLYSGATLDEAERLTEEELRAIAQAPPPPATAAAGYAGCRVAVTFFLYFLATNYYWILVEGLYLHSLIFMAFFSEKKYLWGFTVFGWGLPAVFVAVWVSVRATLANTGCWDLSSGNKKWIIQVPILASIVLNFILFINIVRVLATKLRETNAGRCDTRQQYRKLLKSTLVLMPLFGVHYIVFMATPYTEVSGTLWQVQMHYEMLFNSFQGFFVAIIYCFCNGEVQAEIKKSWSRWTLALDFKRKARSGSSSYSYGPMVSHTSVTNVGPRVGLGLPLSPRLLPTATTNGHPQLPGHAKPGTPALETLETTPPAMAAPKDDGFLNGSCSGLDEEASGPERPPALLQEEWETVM

T1 sequence (P32121 whole entry C17S/C60V/L69C/C126S/C141L/C151V/C243V/C252V/C270S/C409S): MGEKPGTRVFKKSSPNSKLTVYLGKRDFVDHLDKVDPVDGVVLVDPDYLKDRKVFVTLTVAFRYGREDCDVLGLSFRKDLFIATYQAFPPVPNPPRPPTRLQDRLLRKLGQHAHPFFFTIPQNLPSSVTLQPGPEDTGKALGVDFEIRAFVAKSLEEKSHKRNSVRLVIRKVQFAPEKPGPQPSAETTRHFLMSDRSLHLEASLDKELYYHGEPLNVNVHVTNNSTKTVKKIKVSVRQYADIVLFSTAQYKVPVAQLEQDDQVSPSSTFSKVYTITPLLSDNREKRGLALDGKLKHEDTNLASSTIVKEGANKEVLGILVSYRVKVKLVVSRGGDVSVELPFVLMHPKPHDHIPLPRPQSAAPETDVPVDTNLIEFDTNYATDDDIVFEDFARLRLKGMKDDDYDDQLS

Row | Kd (βarr2L69C-BIM) | average diffusion coefficient (D) of PTH1R^mNG molecules in the presence of PTH^TMR (0.088 µm^2/s in the absence of the ligand), single-molecule tracking [1] | Molecule
1 | 64.8 ± 16.8 µM | – | CCCCCCCC(=O)OC[C@H](COP(=O)(O)O[C@@H]1[C@H](O)[C@H](O)[C@@H](OP(=O)(O)O)[C@H](OP(=O)(O)O)[C@H]1O)OC(=O)CCCCCCC [di-C8-PI(4,5)P2]
2 | 15.5 ± 2.6 µM | – | CCCCCCCC(=O)OC[C@H](COP(=O)(O)O[C@H]1[C@H](O)[C@@H](OP(=O)(O)O)[C@H](OP(=O)(O)O)[C@@H](OP(=O)(O)O)[C@H]1O)OC(=O)CCCCCCC [diC8-PI(3,4,5)P3]
3 | – | 0.02 µm^2/s | PTH(1-34) labeled in position 13 with tetramethylrhodamine (PTH^TMR) (peptide)
